Assay results from PubChem BioAssay AID2060909 (Molecular Pharmacology Branch, DTP, NCI, 2025).

Test system: 362531-283-R-J2-PDC complex spheroid viability
Experiment: Anticancer human tumor 362531-283-R-J2-PDC patient-derived colon adenocarcinoma cell line growth inhibition [RAS]
Details: for viability, T/C: stronger effect = lower value
Procedure, shortened: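 Multi-cell-type spheroids: tumor cells plus HUVEC endothelial cells and mesenchymal stem cells. RAS-pathway inhibitors were combined with targeted agents, each dosed in half-log steps down from clinical Cmax, or from 10 microM when Cmax was unknown.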

[1] = curve of first compound, second compound 0.0316 µM
[2] = curve of first compound, second compound 0.1 µM
[3] = curve of first compound, second compound 0.316 µM
[4] = curve of first compound, second compound 1 µM
[5] = second compound 0.0316 µM, first compound 0.00316 µM
[6] = second compound 0.0316 µM, first compound 0.01 µM
[7] = second compound 0.0316 µM, first compound 0.0316 µM
[8] = second compound 0.0316 µM, first compound 0.1 µM
[9] = second compound 0.0316 µM, first compound 0.316 µM
[10] = second compound 0.0316 µM, first compound 1 µM
[11] = second compound 0.1 µM, first compound 0.00316 µM
[12] = second compound 0.1 µM, first compound 0.01 µM
[13] = second compound 0.1 µM, first compound 0.0316 µM
[14] = second compound 0.1 µM, first compound 0.1 µM
[15] = second compound 0.1 µM, first compound 0.316 µM
[16] = second compound 0.1 µM, first compound 1 µM
[17] = second compound 0.316 µM, first compound 0.00316 µM
[18] = second compound 0.316 µM, first compound 0.01 µM
[19] = second compound 0.316 µM, first compound 0.0316 µM
[20] = second compound 0.316 µM, first compound 0.1 µM
[21] = second compound 0.316 µM, first compound 0.316 µM
[22] = second compound 0.316 µM, first compound 1 µM
[23] = second compound 1 µM, first compound 0.00316 µM
[24] = second compound 1 µM, first compound 0.01 µM
[25] = second compound 1 µM, first compound 0.0316 µM
[26] = second compound 1 µM, first compound 0.1 µM
[27] = second compound 1 µM, first compound 0.316 µM
[28] = second compound 1 µM, first compound 1 µM
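Note: spheroids exposed to the agents for 7 days before readout.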
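Throughout, for viability, T/C: luminescence viability as percent of DMSO vehicle control wells.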

C=CC(=O)N1CCN(c2nc(OCC3CCCN3C)nc3c(F)c(-c4nc(N)cc(C)c4C(F)(F)F)c(Cl)cc23)C(C)C1 (stereo not drawn) + C#Cc1c(F)ccc2cc(O)cc(-c3ncc4c(N5CC6CCC(C5)N6)nc(OCC56CCCN5CC(F)C6)nc4c3F)c12
IC50 [1]: > 1000 nM | IC50 [2]: > 1000 nM | IC50 [3]: > 1000 nM | IC50 [4]: > 1000 nM | IC50 (curve of first compound, second compound 3.16 µM): > 1000 nM | IC50 (curve of first compound, second compound 10 µM): < 3.16 nM | viability, T/C [5]: 98.1% | viability, T/C [6]: 94.4% | viability, T/C [7]: 95.5% | viability, T/C [8]: 98.4% | viability, T/C [9]: 97.8% | viability, T/C [10]: 89.6% | viability, T/C [11]: 93.6% | viability, T/C [12]: 93.1% | viability, T/C [13]: 97.1% | viability, T/C [14]: 92.3% | viability, T/C [15]: 98.7% | viability, T/C [16]: 98.3% | viability, T/C [17]: 82.6% | viability, T/C [18]: 78.6% | viability, T/C [19]: 90.9% | viability, T/C [20]: 97.8% | viability, T/C [21]: 89.3% | viability, T/C [22]: 90.7% | viability, T/C [23]: 80.7% | viability, T/C [24]: 74.4% | viability, T/C [25]: 82.7% | viability, T/C [26]: 70.4% | viability, T/C [27]: 82.7% | viability, T/C [28]: 74.4% | viability, T/C (second compound 3.16 µM, first compound 0.00316 µM): 66.5% | viability, T/C (second compound 3.16 µM, first compound 0.01 µM): 69% | viability, T/C (second compound 3.16 µM, first compound 0.0316 µM): 71.2% | viability, T/C (second compound 3.16 µM, first compound 0.1 µM): 80.8% | viability, T/C (second compound 3.16 µM, first compound 0.316 µM): 58.1% | viability, T/C (second compound 3.16 µM, first compound 1 µM): 71.7% | viability, T/C (second compound 10 µM, first compound 0.00316 µM): 39.9% | viability, T/C (second compound 10 µM, first compound 0.01 µM): 48% | viability, T/C (second compound 10 µM, first compound 0.0316 µM): 46.7% | viability, T/C (second compound 10 µM, first compound 0.1 µM): 38.1% | viability, T/C (second compound 10 µM, first compound 0.316 µM): 49.6% | viability, T/C (second compound 10 µM, first compound 1 µM): 42.7%

C=CC(=O)N1CCN(c2nc(OCC3CCCN3C)nc3c(F)c(-c4nc(N)cc(C)c4C(F)(F)F)c(Cl)cc23)C(C)C1 (stereo not drawn)
viability, T/C (compound 0.00316 µM): 104% [middle of 12 runs] | viability, T/C (compound 0.01 µM): 108% [middle of 12 runs] | viability, T/C (compound 0.0316 µM): 102% [middle of 12 runs] | viability, T/C (compound 0.1 µM): 102% [middle of 12 runs] | viability, T/C (compound 0.316 µM): 102% [middle of 12 runs] | IC50 (compound alone, run of 07/15/2024): > 1000 nM | IC50 (curve of compound): > 1000 nM

Nc1ccn(C2OC(CO)C(O)C2(F)F)c(=O)n1 (stereo not drawn) + CCn1c(-c2cc(N3CCN(C)CC3)cnc2C(C)OC)c2c3cc(ccc31)-c1csc(n1)CC(NC(=O)C1CC1C)C(=O)N1CCCC(N1)C(=O)OCC(C)(C)C2
IC50 (curve of first compound, second compound 0.000949 µM): 181 nM | IC50 (curve of first compound, second compound 0.003 µM): 177 nM | IC50 (curve of first compound, second compound 0.00949 µM): 128 nM | IC50 (curve of first compound, second compound 0.03 µM): 141 nM | IC50 (curve of first compound, second compound 0.0949 µM): 80 nM | IC50 (curve of first compound, second compound 0.3 µM): < 3.16 nM | viability, T/C (second compound 0.000949 µM, first compound 0.00316 µM): 98.9% | viability, T/C (second compound 0.000949 µM, first compound 0.01 µM): 108% | viability, T/C (second compound 0.000949 µM, first compound 0.0316 µM): 80.5% | viability, T/C (second compound 0.000949 µM, first compound 0.1 µM): 75.7% | viability, T/C (second compound 0.000949 µM, first compound 0.316 µM): 23.7% | viability, T/C (second compound 0.000949 µM, first compound 1 µM): 27.7% | viability, T/C (second compound 0.003 µM, first compound 0.00316 µM): 110% | viability, T/C (second compound 0.003 µM, first compound 0.01 µM): 91% | viability, T/C (second compound 0.003 µM, first compound 0.0316 µM): 82% | viability, T/C (second compound 0.003 µM, first compound 0.1 µM): 75.7% | viability, T/C (second compound 0.003 µM, first compound 0.316 µM): 18.9% | viability, T/C (second compound 0.003 µM, first compound 1 µM): 29.3% | viability, T/C (second compound 0.00949 µM, first compound 0.00316 µM): 95% | viability, T/C (second compound 0.00949 µM, first compound 0.01 µM): 101% | viability, T/C (second compound 0.00949 µM, first compound 0.0316 µM): 66.7% | viability, T/C (second compound 0.00949 µM, first compound 0.1 µM): 69.5% | viability, T/C (second compound 0.00949 µM, first compound 0.316 µM): 17.6% | viability, T/C (second compound 0.00949 µM, first compound 1 µM): 24.9% | viability, T/C (second compound 0.03 µM, first compound 0.00316 µM): 97.9% | viability, T/C (second compound 0.03 µM, first compound 0.01 µM): 86.8% | viability, T/C (second compound 0.03 µM, first compound 0.0316 µM): 75.5% | viability, T/C (second compound 0.03 µM, first compound 0.1 µM): 63.6% | viability, T/C (second compound 0.03 µM, first compound 0.316 µM): 15.3% | viability, T/C (second compound 0.03 µM, first compound 1 µM): 21.6% | viability, T/C (second compound 0.0949 µM, first compound 0.00316 µM): 80.2% | viability, T/C (second compound 0.0949 µM, first compound 0.01 µM): 80% | viability, T/C (second compound 0.0949 µM, first compound 0.0316 µM): 64.4% | viability, T/C (second compound 0.0949 µM, first compound 0.1 µM): 49.9% | viability, T/C (second compound 0.0949 µM, first compound 0.316 µM): 10.8% | viability, T/C (second compound 0.0949 µM, first compound 1 µM): 17.4% | viability, T/C (second compound 0.3 µM, first compound 0.00316 µM): 40.9% | viability, T/C (second compound 0.3 µM, first compound 0.01 µM): 46.2% | viability, T/C (second compound 0.3 µM, first compound 0.0316 µM): 28.5% | viability, T/C (second compound 0.3 µM, first compound 0.1 µM): 25.1% | viability, T/C (second compound 0.3 µM, first compound 0.316 µM): 14.6% | viability, T/C (second compound 0.3 µM, first compound 1 µM): 10.3%

O=C(c1ccc(F)c(F)c1Nc1ccc(I)cc1F)N1CC(O)([C@@H]2CCCCN2)C1 + C=CC(=O)N1CCN(c2nc(OCC3CCCN3C)nc3c(F)c(-c4nc(N)cc(C)c4C(F)(F)F)c(Cl)cc23)C(C)C1
IC50 (curve of first compound, second compound 0.00316 µM): 363 nM | IC50 (curve of first compound, second compound 0.01 µM): 399 nM | IC50 [1]: 306 nM | IC50 [2]: 368 nM | IC50 [3]: 377 nM | IC50 [4]: 349 nM | viability, T/C (second compound 0.00316 µM, first compound 0.00316 µM): 94.4% | viability, T/C (second compound 0.00316 µM, first compound 0.01 µM): 111% | viability, T/C (second compound 0.00316 µM, first compound 0.0316 µM): 93.1% | viability, T/C (second compound 0.00316 µM, first compound 0.1 µM): 84.8% | viability, T/C (second compound 0.00316 µM, first compound 0.316 µM): 56.6% | viability, T/C (second compound 0.00316 µM, first compound 1 µM): 4.22% | viability, T/C (second compound 0.01 µM, first compound 0.00316 µM): 100% | viability, T/C (second compound 0.01 µM, first compound 0.01 µM): 95.3% | viability, T/C (second compound 0.01 µM, first compound 0.0316 µM): 97% | viability, T/C (second compound 0.01 µM, first compound 0.1 µM): 83.9% | viability, T/C (second compound 0.01 µM, first compound 0.316 µM): 61.4% | viability, T/C (second compound 0.01 µM, first compound 1 µM): 6.87% | viability, T/C [5]: 103% | viability, T/C [6]: 99.2% | viability, T/C [7]: 95.1% | viability, T/C [8]: 80.8% | viability, T/C [9]: 48.9% | viability, T/C [10]: 10.1% | viability, T/C [11]: 101% | viability, T/C [12]: 97.5% | viability, T/C [13]: 88.8% | viability, T/C [14]: 79.6% | viability, T/C [15]: 59.6% | viability, T/C [16]: 4.51% | viability, T/C [17]: 99.7% | viability, T/C [18]: 97.6% | viability, T/C [19]: 91.9% | viability, T/C [20]: 81.9% | viability, T/C [21]: 58.3% | viability, T/C [22]: 6.58% | viability, T/C [23]: 101% | viability, T/C [24]: 94.7% | viability, T/C [25]: 81.1% | viability, T/C [26]: 79.7% | viability, T/C [27]: 55.5% | viability, T/C [28]: 8.33%
